For experiment [1], the target named is Cy5-labelled Mcl1 (amino acids 171-321) C286S protein (UniProtKB Q07820) (Homo sapiens (Human), UniProt Q07820, C286S). The experiment can be described thus: Inhibition of Mcl-1 by the fluorescence quenching assay (Example A, Method B). Format: binding. Put shortly:
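Cy5-labelled Mcl1 171-321 C286S (1 nM) quenched by TQ5WS-labelled PUMA peptide (10, 20 or 400 nM); displacement raises fluorescence (Ex 620/Em 680 nm). Buffer 10 mM HEPES, 150 mM NaCl, 0.05% Tween 20, pH 7.4, 5% DMSO; 2 h at room temperature, 11-point curves, IC50 converted to Ki (cKi/eKi).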

The next experiment has as its system NCI-H929 cell lines. The experiment is described as follows: In vitro cytotoxicity, CellTiter-Glo (CTG) assay (Example B, Method B). Type of experiment: cell-based. Particulars: NCI-H929 cells, 48 h incubation, read-out: C50. In outline: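 NCI-H929 cells exposed to an 11-point compound series from 10 mM DMSO stocks (top final 30 μM) for 48 h at 37° C., 5% CO2. Viability measured as ATP by CellTiter-Glo luminescence; C50 is the concentration giving 50% cellular viability.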

Where two headings read alike, the source gives them in different places. Bounds are passed on as bounds.

Cy5-labelled Mcl1 (amino acids 171-321) C286S protein, sequence (Q07820 171-321 C286S): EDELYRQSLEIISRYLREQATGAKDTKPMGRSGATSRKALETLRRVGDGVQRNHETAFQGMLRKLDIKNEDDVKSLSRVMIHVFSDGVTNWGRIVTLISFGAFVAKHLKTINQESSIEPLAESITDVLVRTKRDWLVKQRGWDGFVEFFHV

As for `C[C@@H](COc1ccnc2c1[C@H](C)CCC2)C[C@H]1Cc2cc3c(cc2[C@]12CC[C@@](Nc1cccc(Cl)c1)(C(=O)O)CC2)OCCCO3` [Example 837, (1r,4S,8′S)-4-(3-chloroanilino)-8′-[(2R)-2-methyl-3-{[(5R)-5-methyl-5,6,7,8-tetrahydroquinolin-4-yl]oxy}propyl]-3′,4′,8′,9′-tetrahydro-2′H-spiro[cyclohexane-1,7′-indeno[5,6-b][1,4]dioxepine]-4-carboxylic acid], in experiment [1], the Ki was 0.00733 nM. The IC50 in the experiment with NCI-H929 cell lines (Homo sapiens, NCI-H929, 48 h) stood at 31 nM.
For the molecule `CCC1Oc2cc3c(cc2O1)[C@]1(CC[C@@](Nc2cccc(Cl)c2)(C(=O)O)CC1)[C@@H](C[C@@H](C)COc1ccnc2c1[C@H](C)CCC2)C3` (single isomer, unassigned) [Example 968], in experiment [1], the Ki was 0.0405 nM. Also, the IC50 in the experiment on NCI-H929 cell lines was found to be 72.7 nM.
Regarding `CCN(CC)C(=O)OC(C)OC(=O)[C@]1(Nc2cccc(Cl)c2)CC[C@@]2(CC1)c1cc3c(cc1C[C@@H]2C[C@@H](C)COc1ccnc2c1[C@H](C)CCC2)OCO3` (stereo partly drawn) [Example 949, 1-[(diethylcarbamoyl)oxy]ethyl (1r,4S,6′S)-4-(3-chloroanilino)-6′-[(2R)-2-methyl-3-{[(5R)-5-methyl-5,6,7,8-tetrahydroquinolin-4-yl]oxy}propyl]-6′,7′-dihydro-2′H-spiro[cyclohexane-1,5′-indeno[5,6-d][1,3]dioxole]-4-carboxylate], the inhibition at 1 µM in experiment [1] (@ 1 μM, read-out: Mcl-1 inhibition, % at a single concentration) amounted to 13.6%. In addition, the IC50 in the experiment on NCI-H929 cell lines (Homo sapiens, NCI-H929, 48 h) is more than 30000 nM.
On to `CC(C)COc1ccc2c(c1)[C@]1(CC[C@@](Nc3cccc(Cl)c3)(C(=O)O)CC1)[C@@H](C[C@@H](C)COc1ccnc3c1[C@H](C)CCC3)C2` [Example 788, (1r,2′S,4S)-4-(3-chloroanilino)-2′-[(2R)-2-methyl-3-{[(5R)-5-methyl-5,6,7,8-tetrahydroquinolin-4-yl]oxy}propyl]-6′-(2-methylpropoxy)-2′,3′-dihydrospiro[cyclohexane-1,1′-indene]-4-carboxylic acid], for which the Ki in experiment [1] worked out at 0.241 nM. Further, the IC50 in the experiment on NCI-H929 cell lines (Homo sapiens, NCI-H929, 48 h) amounted to 262 nM.
As to `C[C@@H](COc1ccnc2c1[C@H](C)CC[C@H]2F)C[C@H]1Cc2cc3c(cc2[C@]12CC[C@@](Nc1cccc(Cl)c1)(C(=O)O)CC2)OCO3` [Example 961, (1r,4S,6′S)-4-(3-chloroanilino)-6′-[(2R)-3-{[(5R,8R)-8-fluoro-5-methyl-5,6,7,8-tetrahydroquinolin-4-yl]oxy}-2-methylpropyl]-6′,7′-dihydro-2′H-spiro[cyclohexane-1,5′-indeno[5,6-d][1,3]dioxole]-4-carboxylic acid], the Ki in experiment [1] is 0.0308 nM. Moreover, in the experiment on NCI-H929 cell lines (Homo sapiens, NCI-H929, 48 h), the IC50 amounted to 98.8 nM.
Regarding `CCCC1COc2cc3c(cc2OC1)[C@]1(CC[C@@](Nc2cccc(Cl)c2)(C(=O)O)CC1)[C@@H](C[C@@H](C)COc1ccnc2c1[C@H](C)CCC2)C3` (single isomer, unassigned) [Example 990], the Ki in experiment [1] was 0.0575 nM. Also, the IC50 in the experiment on NCI-H929 cell lines amounted to 353 nM.
Take `C[C@@H](COc1ccnc2c1[C@H](C)CCC2)C[C@H]1Cc2cc3c(cc2[C@]12CC[C@@](Nc1cccc(Cl)c1)(C(=O)O)CC2)OC[C@H](C)O3` [Example 971, (1r,2′S,4S,7′S)-4-(3-chloroanilino)-2′-methyl-7′-[(2R)-2-methyl-3-{[(5R)-5-methyl-5,6,7,8-tetrahydroquinolin-4-yl]oxy}propyl]-2′,3′,7′,8′-tetrahydrospiro[cyclohexane-1,6′-indeno[5,6-b][1,4]dioxine]-4-carboxylic acid]: the Ki in experiment [1] was 0.0143 nM. In the experiment with NCI-H929 cell lines (Homo sapiens, NCI-H929, 48 h), the IC50 came out at 41 nM.
For the molecule `CCC1COc2cc3c(cc2OC1)[C@]1(CC[C@@](Nc2cccc(Cl)c2)(C(=O)O)CC1)[C@@H](C[C@@H](C)COc1ccnc2c1[C@H](C)CCC2)C3` (single isomer, unassigned) [Example 989], the inhibitory constant (Ki) in experiment [1] was determined as 0.0288 nM. Moreover, the IC50 with NCI-H929 cell lines stood at 88.5 nM.
On the same counts, the results for `CC(O)c1ccc2c(c1)[C@]1(CC[C@@](Nc3cccc(Cl)c3)(C(=O)O)CC1)[C@@H](C[C@@H](C)COc1ccnc3c1[C@H](C)CCC3)C2` (single isomer, unassigned) [Example 859] are 0.0375 nM and 43.7 nM.
`C[C@@H](COc1ccnc2c1[C@H](C)CCC2)C[C@H]1Cc2ccc(OCC3CC3)cc2[C@]12CC[C@@](Nc1cccc(Cl)c1)(C(=O)O)CC2` [Example 791, (1r,2′S,4S)-4-(3-chloroanilino)-6′-(cyclopropylmethoxy)-2′-[(2R)-2-methyl-3-{[(5R)-5-methyl-5,6,7,8-tetrahydroquinolin-4-yl]oxy}propyl]-2′,3′-dihydrospiro[cyclohexane-1,1′-indene]-4-carboxylic acid]: the inhibition constant Ki in experiment [1] came out at 0.124 nM. Also, the IC50 with NCI-H929 cell lines (Homo sapiens, NCI-H929, 48 h) turned out to be 192 nM.
Turning to `C[C@@H](COc1ccnc2c1[C@H](C)CCC2)C[C@H]1Cc2cc3c(cc2[C@]12CC[C@@](Nc1cccc(Cl)c1)(C(=O)O)CC2)OCC[C@@H](C)O3` [Example 986, (1r,2′R,4S,8′S)-4-(3-chloroanilino)-2′-methyl-8′-[(2R)-2-methyl-3-{[(5R)-5-methyl-5,6,7,8-tetrahydroquinolin-4-yl]oxy}propyl]-3′,4′,8′,9′-tetrahydro-2′H-spiro[cyclohexane-1,7′-indeno[5,6-b][1,4]dioxepine]-4-carboxylic acid], the Ki in experiment [1] was 0.0342 nM. Moreover, the IC50 in the experiment with NCI-H929 cell lines (Homo sapiens, NCI-H929, 48 h) amounted to 86.9 nM.
On to `CC1Oc2cc3c(cc2O1)[C@]1(CC[C@@](Nc2cccc(Cl)c2)(C(=O)O)CC1)[C@@H](C[C@@H](C)COc1ccnc2c1[C@H](C)CCC2)C3` (single isomer, unassigned) [Example 966], for which, in experiment [1], the Ki turned out to be 0.0267 nM. Besides, in the experiment with NCI-H929 cell lines, the IC50 is 48.3 nM.
Take `C[C@@H](COc1ccnc2c1[C@H](C)CCC2)C[C@H]1Cc2ccccc2[C@]12CC[C@@](Nc1cccc(Cl)c1)(C(=O)O)CC2` [Example 653, (1r,2′S,4S)-4-(3-chloroanilino)-2′-[(2R)-2-methyl-3-{[(5R)-5-methyl-5,6,7,8-tetrahydroquinolin-4-yl]oxy}propyl]-2′,3′-dihydrospiro[cyclohexane-1,1′-indene]-4-carboxylic acid]: in experiment [1], the Ki came to 0.282 nM. The IC50 in the experiment with NCI-H929 cell lines (Homo sapiens, NCI-H929, 48 h) was 113 nM.
Take `C[C@@H](COc1ccnc2c1[C@H](C)CCC2)CN1Cc2cc3c(cc2[C@]12CC[C@](Nc1cccc(Cl)c1)(C(=O)O)CC2)OCO3` [Example 45, (1r,4R)-4-(3-chloroanilino)-6′-[(2R)-2-methyl-3-{[(5R)-5-methyl-5,6,7,8-tetrahydroquinolin-4-yl]oxy}propyl]-6′,7′-dihydro-2′H-spiro[cyclohexane-1,5′-[1,3]dioxolo[4,5-f]isoindole]-4-carboxylic acid]: the inhibitory constant (Ki) in experiment [1] (Ki determined from IC50) is 300 nM. The IC50 in the experiment with NCI-H929 cell lines (Homo sapiens, NCI-H929, 48 h) was 24200 nM.
Take `C[C@@H](COc1ccnc2c1[C@H](C)CCC2)C[C@@H]1Cc2ccc(-c3cc[nH]c3)cc2[C@]12CC[C@@](Nc1cccc(Cl)c1)(C(=O)O)CC2` [Example 882, (1r,2′R,4R)-4-(3-chloroanilino)-2′-[(2R)-2-methyl-3-{[(5R)-5-methyl-5,6,7,8-tetrahydroquinolin-4-yl]oxy}propyl]-6′-(1H-pyrrol-3-yl)-2′,3′-dihydrospiro[cyclohexane-1,1′-indene]-4-carboxylic acid]: the inhibition constant Ki in experiment [1] amounted to 1.84 nM. Besides, the IC50 with NCI-H929 cell lines (Homo sapiens, NCI-H929, 48 h) is 1300 nM.
In the case of `CCOc1cc2c(cc1Br)C[C@H](C[C@@H](C)COc1ccnc3c1[C@H](C)CCC3)[C@]21CC[C@](Nc2cccc(Cl)c2)(C(=O)O)CC1` [Example 817, (1r,2′S,4S)-5′-bromo-4-(3-chloroanilino)-6′-ethoxy-2′-[(2R)-2-methyl-3-{[(5R)-5-methyl-5,6,7,8-tetrahydroquinolin-4-yl]oxy}propyl]-2′,3′-dihydrospiro[cyclohexane-1,1′-indene]-4-carboxylic acid], the Ki in experiment [1] turned out to be 0.229 nM. Also, the IC50 in the experiment with NCI-H929 cell lines (Homo sapiens, NCI-H929, 48 h) worked out at 165 nM.
On to `CC(OC(=O)N1CCOCC1)OC(=O)[C@]1(Nc2cccc(Cl)c2)CC[C@@]2(CC1)c1cc3c(cc1C[C@@H]2C[C@@H](C)COc1ccnc2c1[C@H](C)CCC2)OCO3` (stereo partly drawn) [Example 948, 1-({(1r,4S,6′S)-4-(3-chloroanilino)-6′-[(2R)-2-methyl-3-{[(5R)-5-methyl-5,6,7,8-tetrahydroquinolin-4-yl]oxy}propyl]-6′,7′-dihydro-2′H-spiro[cyclohexane-1,5′-indeno[5,6-d][1,3]dioxole]-4-carbonyl}oxy)ethyl morpholine-4-carboxylate], for which the Ki in experiment [1] came out at 64.9 nM. Besides, the IC50 with NCI-H929 cell lines (Homo sapiens, NCI-H929, 48 h) was 7120 nM.
In the same order, the values of `CC[C@@H]1COc2cc3c(cc2O1)[C@]1(CC[C@@](Nc2cccc(Cl)c2)(C(=O)O)CC1)[C@@H](C[C@@H](C)COc1ccnc2c1[C@H](C)CCC2)C3` [Example 979, (1r,3′R,4S,7′S)-4-(3-chloroanilino)-3′-ethyl-7′-[(2R)-2-methyl-3-{[(5R)-5-methyl-5,6,7,8-tetrahydroquinolin-4-yl]oxy}propyl]-2′,3′,7′,8′-tetrahydrospiro[cyclohexane-1,6′-indeno[5,6-b][1,4]dioxine]-4-carboxylic acid] are 0.0299 nM and 67.2 nM.
`C[C@@H](COc1ccnc2c1[C@@H](C)CCC2)C[C@@H]1Cc2cc3c(cc2[C@]12CC[C@@](Nc1cccc(Cl)c1)(C(=O)O)CC2)OCO3` [Example 843, (1r,4R,6′R)-4-(3-chloroanilino)-6′-[(2R)-2-methyl-3-{[(5S)-5-methyl-5,6,7,8-tetrahydroquinolin-4-yl]oxy}propyl]-6′,7′-dihydro-2′H-spiro[cyclohexane-1,5′-indeno[5,6-d][1,3]dioxole]-4-carboxylic acid]: the Ki in experiment [1] turned out to be 3.58 nM. In the experiment on NCI-H929 cell lines (Homo sapiens, NCI-H929, 48 h), the IC50 came to 1380 nM.

For the origin of these results see US20240150293A1, “SPIROCYCLOHEXANE DERIVATIVES, PHARMACEUTICAL COMPOSITIONS CONTAINING THEM AND THEIR USES AS ANTI-APOPTOTIC INHIBITORS” (LES LABORATOIRES SERVIER, priority 2021, published 2024).
